Experimental data taken from patent publication US20230125075A1, “Composition Containing Paper Mulberry Extracts” (LG Household & Health Care Ltd., priority 2020, published 2023).
“And” between values parts separate entries of the source, which are not always exact repeats. Identical values can stand only once. One block for each compound: values may come before it.

Experiments:
Format in all cases: cell-based
[1] = system: 3T3-L1 fibroblasts; assay: Glycerol content in culture medium of 3T3-L1 fibroblasts (lipolysis); conditions: positive control
Protocol: To confirm the anti-obesity effect of the plant extracts, the content of glycerol in the culture medium of 3T3-L1 fibroblasts was measured.
First, 3T3-L1 fibroblasts were cultured using a DMEM culture medium (proliferation culture medium) containing 10% bovine serum to an appropriate cell number on a plate. Then, using a DMEM culture medium (differentiation culture medium) containing 10% FBS, the cells were cultured until the plate was filled with the cells, and then were further cultured for 2 to 3 days. The existing culture medium was replaced with a culture medium to induce cell differentiation, which contains insulin (5 μg/mL), dexamethasone (0.25 μM), and 3-isobutyl-1-methylxanthine (0.5 mM), and was followed by incubation for 2 to 3 days. Afterwards, the culture medium was replaced with a medium containing only insulin and the cells were incubated for 2 to 3 days, and then the culture medium was replaced again with a DMEM culture medium containing 10% FBS and the cells were again incubated for 6 to 8 days (incubated until a point at which fat accumulation is observed in the cells). The anti-obesity substance was added before or after differentiation induction according to the purpose of the experiment. The cell culture medium was centrifuged at 10,000 rpm for 10 minutes, and the supernatant was obtained using a Pasteur pipette. The obtained supernatant was transferred to a plate and heated at 65° C. for 8 min to inactivate enzymes released from the cells. Next, a glycerol probe was dissolved in 220 μl of DMSO, and a glycerol enzyme mixture (Cayman Chemical, USA; Item No. 10010962) was dissolved in an assay buffer. These solutions were shielded from light and stored at −20° C. until experiment was performed. A 1 mM glycerol standard solution was prepared by diluting 10 μl of a glycerol standard solution with 990 μl of an analysis buffer. Then, the 1 mM glycerol standard solution was thoroughly mixed, 0, 2, 4, 6, 8, and 10 μl of the 1 Mm glycerol standard solution were respectively added to each well, and the analysis buffer was added to the each well to adjust the total volume to 50 μl. 50 μl of the sample (culture medium in which enzymes are inactivated) was added to each well. A reaction mixture containing 46 μl of the analysis buffer, 2 μl of the glycerol probe, and 2 μl of the glycerol enzyme mixture was prepared. 50 μl of the reaction mixture was added to each well containing the standard solution and the sample and was thoroughly mixed. Then, each well was shielded from light and left at room temperature for 30 minutes. Then, absorbance was measured at 570 nm.
As a result of the experiment, the amount of glycerol was quantified. Glycerol is a by-product of lipolysis. Accordingly, as the level of glycerol increases, an anti-obesity effect increases.
When lipolysis is enhanced by the test substance, the amount of triglycerides accumulated in adipocytes decreases and the amount of glycerol released increases. Accordingly, an increase in the amount of released glycerol means an increase in decomposition of triglycerides. Through this experiment, it can be confirmed that the test substance has an anti-obesity effect.

[2] = system: HUVEC cells; assay: Recovery of reduction in nitric oxide induced by oxLDL (Griess reagent); conditions: positive control
Protocol: To confirm the blood circulation improvement effect of the plant extracts, recovery of reduction in nitric oxide induced by oxidized low density lipoprotein (oxLDL) was measured. First, HUVEC cells were suspended in a Ham's F-12K (Kaighn's modification) culture medium, and the suspended cells were aliquoted into a culture plate. Then, plant extracts (samples) diluted at various concentrations were added to the culture plate containing the cells. At this time, […]. The sample-treated cells were placed in a 5% CO2 incubator set at 37° C. and cultured for 24 to 48 hours, and then the supernatant was taken and used as an analysis sample.
To analyze nitric oxide, a Griess reagent was prepared by mixing equal amounts of component A and component B. Then, 250 μl of the sample (culture medium) and 50 μl of the Griess reagent were added to a plate and mixed thoroughly. Next, to prepare a sodium nitrite solution, a nitrite standard solution was diluted with distilled water to a concentration between […] (reference sample). Under light-blocked conditions, a mixture of the sample and the Griess reagent was incubated at room temperature for 30 minutes. Thereafter, the absorbance (OD) of the nitrite-containing sample with respect to the reference sample was measured at 548 nm.
In this experiment, it was confirmed whether the level of nitric oxide decreased by oxLDL was recovered by the plant extracts. At this time, as a result of the experiment, the amount of nitric oxide was quantified. Nitric oxide plays a role in dilating blood vessels.

[3] = system: U266 cells; assay: IgE secretion measurement, ELISA
Protocol: To confirm the anti-allergic effect of the plant extracts, the secretion amount of immunoglobulin E was measured. First, U266 cells were treated with a test substance while culturing the U266 cells in an RPMI1640 culture medium containing 10% FBS for 3 days. After 3 days of treatment with the test substance, the cell culture medium was harvested. IgE capture antibody was added to the plate and left for 1 day. The plate was blocked with 2% BSA. The collected culture medium was added to the plate and mixed by shaking. IgE detection antibody was added to the plate and mixed by shaking. Streptavidin-HRP was added to the plate, and after blocking light, the mixture was shaken. A substrate was added to the plate, and after blocking light, the mixture was mixed by shaking until the color of the mixture changed to blue. After confirming that the color had changed, a 2 N sulfuric acid solution was added to the plate and mixed by shaking until the color changed to yellow. After measuring the absorbance at 450 nm and 570 nm, results were analyzed by subtracting the absorbance at 570 nm from the absorbance at 450 nm. At this time, as a positive control, 1 μM dexamethasone was used, and as a result, an inhibitory effect of 32% was observed. As a result of treatment with 0.1 μM hydrocortisone, an inhibitory effect of 35% was observed.
As a result of the experiment, the amount of IgE was quantified. As the level of IgE decreases, the anti-allergic effect increases.

[4] = system: HepG2 cells; assay: Cholesterol synthesis in HepG2 cells ([14C] acetate incorporation); conditions: for IC50: positive controls, HepG2 cells
Protocol: To confirm the lipid-cholesterol improvement effect of the plant extracts, an appropriate number of HepG2 cells was seeded and cultured using a IMEM culture medium (containing 10% of FCS, 4.5 g/L of glucose, 4 mM glutamine, 10 μg/ml of insulin, 50 μg/ml of penicillin, 50 μg/ml of streptomycin, and 1% of non-essential amino acids). At this time, the culture medium was replaced every 2 days, and the cells were used for the experiment on the 12th day after seeding.
1 ml of a labeled acetate solution ([^14C] sodium acetate) was added to the cells, and the cells were incubated in a CO2 incubator. After 1 hour of incubation, the culture medium was discarded, the cells were washed with ice-cold PBS, 2 M NaOH was added to detach the cells, and the cells were incubated at 95° C. for 1 hour to induce saponification of lipids. Then, [^3H] cholesterol (about 20,000 dpm/sample) was added as a recovery marker, and lipids were extracted with a chloroform-methanol (2:1 (v/v)) solution. Then, after separating lipides through thin layer chromatohrapy (TLC), a band corresponding to free cholesterol was scraped and placed in a scintillation vial for measurement. The results for the above experiment were expressed as the amount of acetate incorporated per protein (acetate (nmole) incorporated/protein (mg)).
In this experimental example, it was confirmed whether the plant extracts inhibit cholesterol synthesis. As a result of the experiment, the amount of cholesterol was quantified. A decrease in cholesterol level means that a cholesterol improvement effect is obtained.
The effect of the test substance on the intracellular cholesterol content was expressed as a relative ratio when the control group (treated with dimethyl sulfoxide (DMSO) only) was 100% or was expressed as the amount incorporated acetate ([^14C]-acetate (nmole) incorporated/4 h/well). As the measured value increases, the amount of synthesized cholesterol increases. That is, a decrease in cholesterol synthesis indicates improvement in cholesterol.

[5] = system: C2C12 cells; assay: Glucose uptake measurement (2-NBDG method, FACS); conditions: positive control
Protocol: To confirm the blood glucose control effect of the plant extracts, the glucose uptake capacity of cells treated with the plant extracts was measured. First, C2C12 cells were seeded on a 96-well culture plate at a cell density of 1×10^4 cells/well. When a state of subconfluence was reached, which is within 24 hours, the experiment was started.
When saturated, the culture medium was removed, and 100 μl of a fresh medium containing 10 μM 2-NBDG or 100 μl of a fresh medium not containing 10 μM 2-NBDG (control) was added to each well. At this time, a test substance to be evaluated was included in the culture medium. That is, the cells were treated with the test substance by changing the culture medium. After treatment for 1 hour, wells were washed 2 times with pre-cold PBS. Then, cells in each well were collected and resuspended in 200 μl of a pre-cold medium, and the nuclei of the cells were stained with 1 μg/mL of propidium iodine (PI).
Measurement was performed with FACS for about 20 seconds. Event results of about 2,000 single cells were collected, and statistical analysis was performed on the event results.
In this experiment, it was determined whether the plant extracts promote intracellular glucose uptake. As a result of the experiment, the amount of glucose uptake into cells was quantified. That is, an increase in glucose uptake into cells means that the blood glucose control effect is improved.
As the value of measured fluorescence intensity increases, the glucose absorption rate increases. An increase in glucose absorption indicates a decrease in blood glucose levels.

SMILES: CCCCCCCCCCC[C@@H](C[C@@H]1OC(=O)[C@H]1CCCCCC)OC(=O)[C@H](CC(C)C)NC=O [orlistat]
- increase of glycerol compared to the negative control group ([1]; 0.5 ppm): 160%

SMILES: CC(C)c1nc(N(C)S(C)(=O)=O)nc(-c2ccc(F)cc2)c1/C=C/[C@@H](O)C[C@@H](O)CC(=O)O [Rosuvastatin]
- recovery of nitric oxide reduced by oxLDL ([2]; 0.1 μM): 100%
- Blood circulation-NO Conc. ([2]; 0.05 ppm): 98.29 % of control
- Blood circulation-NO Conc. (% of control) ([2]; 0.05 ppm): 98.29 % of control and 98.29 (Rosuvastatin % of control
- Blood circulation-NO Conc. ([2]; Rosuvastatin 0.05 ppm): 98.29 % of control
- Blood circulation-NO Conc. (% of control) ([2]; Rosuvastatin 0.05 ppm): 98.29 % of control

SMILES: CC(C)NCC(O)c1ccc(O)c(O)c1 (centres unmarked) [Isoproterenol]
- activity at 10 µM ([1]; Mus musculus, 3T3-L1, 10 μM, read-out: Anti-obesity-Glycerol Conc. (% of control)): 872%
- Anti-obesity-Glycerol Conc. ([1]; 10 pM): 872.36 % of control
- Anti-obesity-Glycerol Conc. ([1]; 10 μM): 872.36 % of control
- Anti-obesity-Glycerol Conc. (% of control) ([1]; 10 μM): 872.36 (Isoproterenol % of control
- Anti-obesity-Glycerol Conc. ([1]; Isoproterenol 10 μM): 872.36 % of control

SMILES: C[C@@H]1C[C@H]2[C@@H]3CCC4=CC(=O)C=C[C@]4(C)[C@@]3(F)[C@@H](O)C[C@]2(C)[C@@]1(O)C(=O)CO [Dexamethasone]
- activity at 1 µM ([3]; Homo sapiens, U-266, positive control, 1 uM, read-out: Anti-allergy-IgE secretion (% of control)): 67.3%
- inhibition at 1 µM ([3]; Homo sapiens, U-266, positive control, 1 μM, read-out: inhibitory effect on IgE secretion): 32%
- Anti-allergy-IgE secretion ([3]; positive control, 1 uM): 67.27 % of control
- Anti-allergy-IgE secretion (% of control) ([3]; positive control, 1 uM): 67.27 (Dexamethasone % of control
- Anti-allergy-IgE secretion ([3]; positive control, Dexamethasone 1 uM): 67.27 % of control

- IC50 ([4]; Homo sapiens): 31.8 nM
SMILES: CCC(C)(C)C(=O)O[C@H]1C[C@@H](C)C=C2C=C[C@H](C)[C@H](CC[C@@H]3C[C@@H](O)CC(=O)O3)[C@H]21 [simvastatin]

SMILES: CN(C)C(=N)N=C(N)N [Metformin]
- activity at 1000 µM ([5]; Mus musculus, C2C12, 1 mM, read-out: Blood glucose-Glucose absorption (% of control)): 184%
- Blood glucose-Glucose absorption ([5]; 1 mM): 183.77 % of control
- Blood glucose-Glucose absorption (% of control) ([5]; 1 mM): 183.77 (Metformin % of control
- increase effect on glucose uptake ([5]; 1 mM): 180%
- Blood glucose-Glucose absorption ([5]; Metformin 1 mM): 183.77 % of control

SMILES: C[C@]12CCC(=O)C=C1CC[C@@H]1[C@@H]2[C@@H](O)C[C@@]2(C)[C@H]1CC[C@]2(O)C(=O)CO [hydrocortisone]
- inhibition at 0.1 µM ([3]; Homo sapiens, U-266, 0.1 μM, read-out: inhibitory effect on IgE secretion): 35%

- IC50 ([4]; Homo sapiens): 70.4 nM
SMILES: CC(C)c1c(C(=O)Nc2ccccc2)c(-c2ccccc2)c(-c2ccc(F)cc2)n1CC[C@@H](O)C[C@@H](O)CC(=O)O [Atorvastatin]
- activity at 0.0704 µM ([4]; Homo sapiens, HepG2, positive control, 70.4 nM, read-out: Lipid-cholesterol synthesis (% of control)): 50%
- Lipid-cholesterol synthesis ([4]; positive control, 70.4 nM): 50.00 % of control
- Lipid-cholesterol synthesis (% of control) ([4]; positive control, 70.4 nM): 50.00 (Atorvastatin % of control
- Lipid-cholesterol synthesis (% of control) ([4]; positive control, 70.4 nM, 0.0704 µM): 50.00 (Atorvastatin % of control
- Lipid-cholesterol synthesis ([4]; positive control, Atorvastatin 70.4 nM): 50.00 % of control
